Assay: Titration of lipophilic capsule contents (placebo) with water until emulsification (robustness)
Type: physicochemical
Settings: placebo capsule contents after the 5 w/w addition of the emulsion stabilizer; titrated with water at room temperature until clear oily liquid turns into milky turbid emulsion
Text: The resistance of the contents of gelatin capsules to the water passing inside was quantified by performing a titration experiment. While stirring constantly using a magnetic stirrer at room temperature, the lipophilic contents intended for capsules was gradually titrated with water until the clear oily liquid begins to change into a milky turbid emulsion.
The robustness of the contents was expressed in the following table as an amount of water, in % w/w, necessary to induce emulsification of the contents.

| Compound | Robustness (amount of water necessary to induce emulsification of the contents) [weight %] |
| --- | --- |
| CCCCCCCC/C=C\CCCCCCCC(=O)OCC(O)CO (stereo not drawn) [Glyceryl monooleate] | 4.98 |
| Decaglyceryl decaoleate | 0.85 |
| Decaglyceryl monooleate | 1.02 |
| Diglyceryl monooleate | 1.68 |

The next lines start with the values.

| Robustness (amount of water necessary to induce emulsification of the contents) [weight %] | Compound |
| --- | --- |
| 3.23 | CCCCC/C=C\C/C=C\CCCCCCCC(=O)OCC(O)CO (stereo not drawn) [Glyceryl monolinoleate] |
| 0.84 | Decaglyceryl monolaurate |
